This is an account of results in patent publication US20090192077A1, “North-2'deoxy -methanocarbathymidines as antiviral agents for treatment of kaposi's sarcoma-associated herpes virus” (priority 2005, published 2009).

Data set [1] relates to PMA-stimulated BCBL-1 cells. The data set is described as follows: Cytotoxicity by XTT assay in BCBL-1 cells. As to the method: (§1) The cytotoxicity of the compounds was determined simultaneously in uninduced and PMA-induced BCBL-1 cells in microplates, using the XTT assay (Weislow, O, S. et al. 1989 J Natl Cancer Inst 81:577-86).
PMA-stimulated BCBL-1 cells were cultured with increasing concentrations of N-MCT, CDV or GCV and the cell growth was determined by XTT method (Weislow, O, S. et al. 1989 J Natl Cancer Inst 81:577-86) after 72 hours and shown as % no drug control (mean±SD of triplicate wells).
On the technique in general: Tetrazolium dyes change colour on reduction, which living cells bring about.

Data set [2] has as its system KSHV. The data set is described as follows: Anti-KSHV activity in the presence of herpesvirus TK inhibitor 5'-ET. As to conditions: PMA-induced BCBL-1; 1 μM N-MCT or 10 μM CDV with 10, 20 or 50 μM 5'-ET. It is filed as cell-based, Kaposi's sarcoma-associated herpesvirus. On the procedure: as §1
Exponentially growing BCBL-1 cells or CEM-SS cells (a human T cell line) were washed three times with PBS and cultured in serum free AIM-V w/BSA medium (Invitrogen) at 2×10^5 cells/mL in the absence (unstimulated control) or presence of 20 ng/mL PMA. After 24 hours, unstimulated and PMA-stimulated cells were harvested, washed once with PBS and resuspended in […] radiolabeled compound [^3H]-(N)-MCT, [^3H]-CDV or [^3H]-GCV. Control cultures containing the same concentration of the test compounds but without the radiolabeled formulations were simultaneously set up in an identical manner to assess the cell counts and to evaluate their anti-KSHV activity. In selected experiments, 5′-ET was added at 10˜50 μM to investigate the changes in the anti-KSHV activity and intracellular phosphorylation profiles of the test compounds. The cells were harvested after 24 or 72 hours of incubation.

The test system of data set [3] is KSHV. The data set is described as follows: Anti-KSHV activity in PMA-induced BCBL-1 cells (virion-associated and cytoplasmic KSHV DNA by PCR). To be noted: for IC50 / IC90: Human gammaherpesvirus 8, BCBL1, 72 h, PMA-stimulated BCBL-1 cells, KSHV virion production, 3 days; for IC50: read-out: IC50 (μM) (mean ± SD), anti-KSHV activity; for IC90: read-out: IC90 (μM) (mean ± SD), anti-KSHV activity. The class given is cell-based, Kaposi's sarcoma-associated herpesvirus. As to the method: A small fraction (1-3%) of BCBL-1 cells in culture is known to spontaneously undergo lytic cycle and release KSHV virions (Kedes, D. H. et al. 1997 J Clin Invest 99:2082-6; Renne, R. et al. 1996 Nat Med 2:342-6). The antiviral effects of N-MCT and two reference anti-herpetic compounds, CDV and GCV, were determined by the relative reduction in the amounts of cytoplasmic KSHV DNA and newly released KSHV virion-associated DNA in BCBL-1 cells exposed to the test compounds, following lytic induction by phorbol ester, PMA (Renne, R. et al. 1996 Nat Med 2:342-6).
Exponentially growing BCBL-1 cells were washed three times with phosphate-buffered saline (PBS) and resuspended in serum free AIM-V w/BSA medium (Invitrogen, Carlsbad, Calif.) at 2×10^5 cells/mL in the absence (unstimulated control) or presence of 20 ng/mL PMA. After 24 hours, unstimulated and PMA-stimulated BCBL-1 were harvested, washed once with PBS and cultured in serum free AIM-V w/BSA medium at 2×10^5 cells/mL without PMA in the absence or presence of the test compounds at varying concentrations. After 3 days, the cells were counted by the trypan blue dye exclusion method and centrifuged at 1,500 rpm for 5 min. The supernatants were centrifuged at 3,000 rpm for 10 min before subjected to virion-derived KSHV DNA extraction and quantitation, as described below.
Low molecular weight (LMW) DNA was extracted from the pelleted cells according to Hirt's method (Hirt, B. 1967 J Mol Biol 26:365-9) and 0.1 μg of LMW DNA was used for KSHV open reading frame 65 (ORF65) PCR by a primer pair (5′-[…]-3′, SEQ ID NO: 2) and 5′-[…]-3′, SEQ ID NO: 3), generating a 529 bp fragment. The ORF65 PCR reaction mixture, containing 20 mM Tris-HCl (pH 8.4), 50 mM KCl, 2.5 mM MgCl2, 200 μM each dNTP, 0.25 U of Platinum® Taq DNA polymerase (Invitrogen), […] and template DNA, was subjected to 25 cycles of PCR amplification at 94° C. for 60 sec, 60° C. for 60 sec and 72° C. for 60 sec, followed by a final extension at 72° C. for 5 min. In addition, the mitochondrial DNA primer pair (5′-[…]-3′, SEQ ID NO: 4 and 5′-[…]-3′, SEQ ID NO: 5) was used as an internal control for each LMW DNA PCR sample (Yang, Q. et al. 2005 J Virol 79:6122-6133). The amplified products were visualized by electrophoresis on a 1.8% agarose gel.
KSHV virions were pelleted from 300 μL of BCBL-1 culture supernatants by a microcentrifugation at 37,000 g for 2 hours at 4° C. The pelleted virions were resuspended in 150 μL PBS and treated with 20 units of DNase I (Promega, Madison, Wis.) at 37° C. for 30 min to remove cellular DNA from the samples, followed by the incubation with stop solution (20 mM EGTA) at 70° C. for 5 min. Virion-associated KSHV DNA (vDNA) was then extracted by QIAamp DNA extraction kit (QIAGEN, Valencia, Calif.) according to the manufacturer's instructions. One μL of vDNA eluted in 100 μL of elution buffer was subjected to real-time quantitative PCR using a LightCycler® instrument (Roche Applied Science, Indianapolis, Ind.). The 20-μL reaction mixture consisted of the LightCycler FastStart DNA Master SYBR Green I reagents mix (Roche Applied Science), 2.5 mM MgCl2 and 500 nM each of KSHV ORF26 primer pair (5′-[…]-3′, SEQ ID NO: 6 and 5′-[…]-3′, SEQ ID NO: 7). Ten-fold serial dilutions of the plasmid, pKS330Bam (obtained through the AIDS Research and Reference Reagent Program, Division of AIDS, NIAID, NIH, contributed by Drs. Yuan Chang and Patrick Moore), which contained a 330 bp KSHV fragment encoding a portion of the ORF26 gene (Chang, Y. et al. 1994 Science 266:1865-9), were included in each assay as external standards to represent 10 to […] KSHV DNA copies/tube. The number of KSHV vDNA in each supernatant sample was calculated by the LightCycler software version 3.5 (Roche Applied Science), adjusted by the cell count and expressed as copies/10^6 cells.

In data set [4] the test system is HSV-2. As to conditions: cited from earlier work.
For data set [5], the system named is HSV-1. As to conditions: cited from earlier work.
Data set [6] relates to BCBL-1 cells. The data set is described as follows: Intracellular phosphorylation in KSHV-infected BCBL-1 cells (HPLC of methanolic extracts). As to the method: Exponentially growing BCBL-1 cells or CEM-SS cells (a human T cell line) were washed three times with PBS and cultured in serum free AIM-V w/BSA medium (Invitrogen) at 2×10^5 cells/mL in the absence (unstimulated control) or presence of 20 ng/mL PMA. After 24 hours, unstimulated and PMA-stimulated cells were harvested, washed once with PBS and resuspended in serum free AIM-V […] radiolabeled compound [^3H]-(N)-MCT, [^3H]-CDV or [^3H]-GCV. Control cultures containing the same concentration of the test compounds but without the radiolabeled formulations were simultaneously set up in an identical manner to assess the cell counts and to evaluate their anti-KSHV activity. In selected experiments, 5′-ET was added at 10˜50 μM to investigate the changes in the anti-KSHV activity and intracellular phosphorylation profiles of the test compounds. The cells were harvested after 24 or 72 hours of incubation.
Upon harvest, the cells were centrifuged at 1,500 rpm for 10 min and washed once with cold PBS. The cell pellets were resuspended in 250 μL of 60% methanol and heated at 95° C. for 3 min, followed by a microcentrifugation at 12,000 g for 10 min at 4° C. The clarified supernatant fractions were evaporated under nitrogen, redissolved in 250 μL of water and subjected to HPLC separation of the phosphorylated metabolites as described in detail elsewhere (Noy, R. et al. 2002 Mol Cancer Ther 1:585-93; Zalah, L. et al. 2002 Antiviral Res 55:63-75). Fractions containing radiolabeled nucleotides were quantitated based on the known specific activity of the parent tritiated nucleoside (Noy, R. et al. 2002 Mol Cancer Ther 1:585-93; Zalah, L. et al. 2002 Antiviral Res 55:63-75).

Data set [7] has as its target T1, recombinant KSHV DNA polymerase (rPOL) and polymerase processivity factor (rPPF) (Human herpesvirus 8 type P, UniProt Q2HRD0).
T1 sequence (Q2HRD0 1-1012): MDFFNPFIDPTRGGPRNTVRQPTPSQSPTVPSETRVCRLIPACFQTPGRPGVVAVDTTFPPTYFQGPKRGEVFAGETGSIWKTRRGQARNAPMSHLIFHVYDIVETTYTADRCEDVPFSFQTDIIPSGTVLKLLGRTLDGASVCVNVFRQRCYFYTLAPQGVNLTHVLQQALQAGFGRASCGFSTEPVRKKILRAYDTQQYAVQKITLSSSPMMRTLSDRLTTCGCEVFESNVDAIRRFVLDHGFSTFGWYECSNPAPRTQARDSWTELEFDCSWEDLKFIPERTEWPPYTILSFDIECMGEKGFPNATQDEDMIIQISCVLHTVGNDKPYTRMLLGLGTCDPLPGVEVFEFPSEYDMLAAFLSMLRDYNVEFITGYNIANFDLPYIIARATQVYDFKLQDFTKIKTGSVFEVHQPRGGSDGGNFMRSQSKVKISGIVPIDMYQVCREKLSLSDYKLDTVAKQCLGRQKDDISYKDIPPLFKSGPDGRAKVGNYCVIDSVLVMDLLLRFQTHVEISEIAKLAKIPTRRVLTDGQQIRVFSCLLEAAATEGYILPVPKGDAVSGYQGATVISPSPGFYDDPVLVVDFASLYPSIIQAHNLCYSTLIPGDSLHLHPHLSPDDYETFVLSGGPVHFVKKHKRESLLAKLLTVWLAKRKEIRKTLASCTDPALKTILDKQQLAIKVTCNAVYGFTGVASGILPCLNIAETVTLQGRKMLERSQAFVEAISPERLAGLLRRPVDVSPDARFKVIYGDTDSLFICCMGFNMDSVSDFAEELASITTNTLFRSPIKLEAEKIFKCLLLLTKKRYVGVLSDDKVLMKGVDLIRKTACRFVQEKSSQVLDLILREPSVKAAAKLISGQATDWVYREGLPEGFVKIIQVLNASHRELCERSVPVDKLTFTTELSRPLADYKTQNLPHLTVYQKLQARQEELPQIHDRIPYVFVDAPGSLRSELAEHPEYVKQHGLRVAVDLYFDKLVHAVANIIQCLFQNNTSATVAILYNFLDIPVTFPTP
T1 sequence (F5HID2 1-396 partner): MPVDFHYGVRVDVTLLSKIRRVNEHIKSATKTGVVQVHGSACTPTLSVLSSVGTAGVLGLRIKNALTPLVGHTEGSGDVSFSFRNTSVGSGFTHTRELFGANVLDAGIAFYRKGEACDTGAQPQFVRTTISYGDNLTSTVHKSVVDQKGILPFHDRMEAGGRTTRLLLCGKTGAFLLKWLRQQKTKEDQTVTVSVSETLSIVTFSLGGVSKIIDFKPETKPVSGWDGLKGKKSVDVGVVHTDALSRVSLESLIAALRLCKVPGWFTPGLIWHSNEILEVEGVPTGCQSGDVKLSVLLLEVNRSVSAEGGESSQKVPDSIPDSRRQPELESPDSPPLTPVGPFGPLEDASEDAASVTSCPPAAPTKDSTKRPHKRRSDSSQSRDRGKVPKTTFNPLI
To be noted: read-out: IC50 (μM) (mean ± SD), KSHV rPOL/rPPF-mediated DNA synthesis; 37° C., 60 min. On the procedure:
KSHV rPOL and rPPF were expressed and purified from the recombinant baculovirus-vector infected Sf9 cells (Dorjsuren, D. et al. 2003 Protein Expr Purif 29:42-50). […] The amounts of newly synthesized DNA, which incorporated DIG-dUTP, were determined by the DIG detection kit (Roche Applied Science) according to the manufacturer's instructions.

With `Nc1ccn(C[C@@H](CO)OCP(=O)(O)O)c(=O)n1` [CDV, cidofovir], the “cytotoxicity at anti-KSHV concentrations” value in data set [1] (0.03 to 10 μM, PMA-induced BCBL-1 cells) was “without notable cytotoxicity”. Moreover, in data set [2], the “effect of adding 5'-ET on anti-KSHV activity” value is listed as “not affected”. In data set [3], the IC50 worked out at 0.42 ± 0.07 µM and the IC90 (commonly the concentration at which the effect reaches the 90% level) is 4.01 ± 2.05 µM.

Regarding `Nc1nc(O)c2ncn(COC(CO)CO)c2n1` [GCV, ganciclovir], in data set [3], the IC50 came to 0.96 ± 0.49 µM and the IC90 worked out at 7.11 ± 0.28 µM.

Compound `Cc1cn([C@H]2C[C@H](O)[C@]3(CO)C[C@H]23)c(=O)[nH]c1=O` [N-MCT, North-methanocarbathymidine] yielded a 50% cytotoxic concentration in data set [1] (human, 72 h) of more than 200 µM. Also, the “antiviral activity against HSV-2” value in data set [4] is given as “strong antiviral activity”. For the same compound, the “effect of adding 5'-ET on anti-KSHV activity” value in data set [2] was “marked increases in the level of cytoplasmic KSHV DNA”. The “antiviral activity against HSV-1” value in data set [5] is “strong antiviral activity”. Besides, in data set [3], the IC50 is 0.08 ± 0.03 µM and the 90% effect concentration (IC90) came to 0.68 ± 0.1 µM.

As to `Cc1cn([C@H]2C[C@H](O)[C@]3(COP(=O)(O)OP(=O)(O)O)C[C@H]23)c(=O)[nH]c1=O` [N-MCT-DP], the “level of phosphorylated metabolite in the presence of 50 μM 5'-ET” value in data set [6] is “substantially decreased”.

For the compound `Cc1cn(C2CC(O)C3(COP(=O)(O)O)CC23)c(=O)[nH]c1=O` (stereo not drawn) [N-MCT-MP], the “level of phosphorylated metabolite in the presence of 50 μM 5'-ET” value in data set [6] was “accumulation”.

On to `Cc1cn([C@@]23C[C@H](O)[C@@H](CO)[C@@H]2C3)c(=O)[nH]c1=O` [S-MCT, south-methanocarbathymidine], for which the “antiviral activity against HSV-2” value in data set [4] was “no antiviral activity”. The “antiviral activity against HSV-1” value in data set [5] is given as “no antiviral activity”. Moreover, the “antiviral activity against KSHV” value in data set [3] (data not shown) is listed as “no antiviral activity”.

On to cidofovir diphosphate [CDV-DP], for which, in data set [7], the IC50 was 14.7 ± 2.47 µM.
